Data taken from US6855710B2, “Substituted indolines with an inhibitory effect on various kinases and complexes of CDKs” (Boehringer Ingelheim Pharma KG, priority 1998, dated 2005).

Row | Compound | melting point
1 | CCCS(=O)(=O)N(CCN(C)C)c1ccc(N/C(=C2\C(=O)Nc3ccc([N+](=O)[O-])cc32)c2ccccc2)cc1 [Example 310, (Z)-3-{1-[4-(N-(2-dimethylaminoethyl)-N-propylsulphonyl-amino)-phenylamino]-1-phenyl-methylidene}-5-nitro-2-indolinone] | 212 °C
2 | CN(Cc1ccc(N/C(=C2\C(=O)Nc3ccc([N+](=O)[O-])cc32)c2ccccc2)cc1)C1CC1 [Example 275, (Z)-3-{1-[4-((N-cyclopropyl-N-methyl-amino)-methyl)-phenylamino]-1-phenyl-methylidene}-5-nitro-2-indolinone] | 216 to 217 °C
3 | CN(C(=O)CN1CCCC1)c1ccc(N/C(=C2\C(=O)Nc3ccc([N+](=O)[O-])cc32)c2ccccc2)cc1 [Example 364, (Z)-3-{1-[4-(N-(pyrrolidin-1-ylmethylcarbonyl)-N-methyl-amino)-phenylamino]-1-phenyl-methylidene}-5-nitro-2-indolinone] | 246 to 247 °C
4 | CN(C)CCNS(=O)(=O)c1ccc(N/C(=C2\C(=O)Nc3ccccc32)c2ccccc2)cc1 [Example 399, (Z)-3-{1-[4-(2-dimethylamino-ethylaminosulphonyl)-phenylamino]-1-phenyl-methylidene}-2-indolinone] | 233 to 235 °C
5 | O=C1Nc2ccccc2/C1=C(/Nc1ccc(C(=O)O)cc1)c1ccccc1 [Example 17, (Z)-3-[1-(4-carboxy-phenylamino)-1-phenyl-methylidene]-2-indolinone] | 312 to 316 °C
6 | CN(C)CCCN(C)S(=O)(=O)c1ccc(N/C(=C2\C(=O)Nc3ccc([N+](=O)[O-])cc32)c2ccccc2)cc1 [Example 404, (Z)-3-{1-[4-(N-(3-dimethylaminopropyl)-N-methyl-aminosulphonyl)-phenylamino]-1-phenyl-methylidene}-5-nitro-2-indolinone] | 269 to 270 °C (dec.)
7 | Cc1ccc(/C(Nc2ccc(CN(C)C)cc2)=C2/C(=O)Nc3ccccc32)cc1 [Example 211, (Z)-3-[1-(4-dimethylaminomethyl-phenylamino)-1-(p-tolyl)-methylidene]-2-indolinone] | 208 to 209 °C
8 | O=C1Nc2ccc([N+](=O)[O-])cc2/C1=C(/Nc1ccc(CN2CCC(Cc3ccccc3)CC2)cc1)c1ccccc1 [Example 172, (Z)-3-{1-[4-(4-phenylmethyl-piperidinomethyl)-phenylamino]-1-phenyl-methylidene}-5-nitro-2-indolinone] | 252 °C
9 | CC(C)(C)OC(=O)NCC(=O)NCc1ccc(N/C(=C2\C(=O)Nc3ccc([N+](=O)[O-])cc32)c2ccccc2)cc1 [Example 144, (Z)-3-[1-(4-tert.butoxycarbonylaminomethylcarbonylaminomethyl-phenylamino)-1-phenyl-methylidene]-5-nitro-2-indolinone] | 219 to 221 °C (dec.)
10 | CN(C(=C1C(=O)Nc2ccccc21)c1ccccc1)c1ccc(C#N)cc1 [Example 61, 3-{1-[N-(4-cyanophenyl)-N-methyl-amino]-1-phenyl-methylidene}-2-indolinone] | 239 °C
11 | CN(C)CCN(c1ccc(N/C(=C2\C(=O)Nc3ccccc32)c2ccccc2)cc1)S(=O)(=O)c1ccccc1 [Example 312, (Z)-3-{1-[4-(N-(2-dimethylaminoethyl)-N-phenylsulphonyl-amino)-phenylamino]-1-phenyl-methylidene}-2-indolinone] | 241 to 243 °C
12 | CCOC(=O)CN(c1ccc(N/C(=C2\C(=O)Nc3ccccc32)c2ccccc2)cc1)S(=O)(=O)CC [Example 297, (Z)-3-{1-[4-(N-ethoxycarbonylmethyl-N-ethylsulphonyl-amino)-phenylamino]-1-phenyl-methylidene}-2-indolinone] | 228 to 230 °C
13 | CN(C)CCN(C(=O)c1ccccc1)c1ccc(N/C(=C2\C(=O)Nc3ccccc32)c2ccccc2)cc1 [Example 452, (Z)-3-[1-(4-(N-(2-dimethylaminoethyl)-N-benzoyl-amino)-phenylamino)-1-phenyl-methylidene]-2-indolinone] | 272 to 274 °C
14 | CC(=O)NCC(=O)N(C)c1ccc(N/C(=C2\C(=O)Nc3ccc([N+](=O)[O-])cc32)c2ccccc2)cc1 [Example 140, (Z)-3-{1-[4-(N-acetylaminomethylcarbonyl-N-methyl-amino)phenylamino]-1-phenyl-methylidene}-5-nitro-2-indolinone] | 277 to 278 °C
15 | CCCC(=O)N(CCN(C)C)c1ccc(N/C(=C2\C(=O)Nc3ccc([N+](=O)[O-])cc32)c2ccccc2)cc1 [Example 331, (Z)-3-{1-[4-(N-(2-dimethylaminoethyl)-N-propylcarbonyl-amino)-phenylamino]-1-phenyl-methylidene}-5-nitro-2-indolinone] | 275 to 277 °C
16 | COCCN(C)C(=O)c1ccc(N/C(=C2\C(=O)Nc3ccccc32)c2ccccc2)cc1 [Example 389, (Z)-3-{1-[4-(N-(2-methoxyethyl)-N-methyl-aminocarbonyl)-phenylamino]-1-phenyl-methylidene}-2-indolinone] | 198 to 200 °C
17 | CCC(=O)N(CC(=O)O)c1ccc(N/C(=C2\C(=O)Nc3ccccc32)c2ccccc2)cc1 [Example 357, (Z)-3-{1-[4-(N-carboxymethyl-N-propionyl-amino)-phenylamino]-1-phenyl-methylidene}-2-indolinone] | 270 °C (dec.)

Row | Compound | melting point
18 | CCOC(=O)CN(C)C(=O)c1cccc(N/C(=C2\C(=O)Nc3ccccc32)c2ccccc2)c1 [Example 25, (Z)-3-{1-[3-(N-ethoxycarbonylmethyl-N-methyl-aminocarbonyl)-phenylamino]-1-phenyl-methylidene}-2-indolinone] | 148 to 150 °C
19 | CN(C)CCN(c1cccc(N/C(=C2\C(=O)Nc3ccccc32)c2ccccc2)c1)S(C)(=O)=O [Example 324, (Z)-3-{1-[3-(N-(2-dimethylaminoethyl)-N-methylsulphonyl-amino)-phenylamino]-1-phenyl-methylidene}-2-indolinone] | 208 to 211 °C
20 | O=C1Nc2ccc([N+](=O)[O-])cc2/C1=C(/Nc1ccc(CN2CC=CCC2)cc1)c1ccccc1 [Example 270, (Z)-3-{1-[4-(3,6-Dihydro-2H-pyridin-1-ylmethyl)-phenylamino]-1-phenyl-methylidene}-5-nitro-2-indolinone] | 222 to 225 °C
21 | O=C1Nc2ccc([N+](=O)[O-])cc2/C1=C(/Nc1ccc(CCNCCO)cc1)c1ccccc1 [Example 256, (Z)-3-{1-[4-(2-(2-hydroxyethylamino)-ethyl)-phenylamino]-1-phenyl-methylidene}-5-nitro-2-indolinone] | 236 to 238 °C
22 | CC(=O)NCc1ccc(/C(Nc2cccc(N(CCCN(C)C)S(C)(=O)=O)c2)=C2/C(=O)Nc3ccccc32)cc1 [Example 425, (Z)-3-{1-[3-(N-(3-dimethylaminopropyl)-N-methylsulphonyl-amino)-phenylamino]-1-(4-acetylaminomethyl-phenyl)-methylidene}-2-indolinone] | 208 °C
23 | CC(=O)NCc1ccc(/C(Nc2ccc(CNC(=O)OC(C)(C)C)cc2)=C2/C(=O)Nc3ccc([N+](=O)[O-])cc32)cc1 [Example 150, (Z)-3-[1-(4-tert.butoxycarbonylaminomethyl-phenylamino)-1-(4-acetylaminomethyl-phenyl)-methylidene]-5-nitro-2-indolinone] | 234 °C (dec.)
24 | CN(Cc1ccc(N/C(=C2\C(=O)Nc3ccc([N+](=O)[O-])cc32)c2ccccc2)cc1)c1ncccn1 [Example 272, (Z)-3-{1-[4-((N-methyl-N-pyrimidin-2-yl-amino)-methyl)-phenylamino]-1-phenyl-methylidene}-5-nitro-2-indolinone] | 236 to 239 °C
25 | CS(=O)(=O)N(CCN1CCOCC1)c1ccc(N/C(=C2\C(=O)Nc3ccc([N+](=O)[O-])cc32)c2ccccc2)cc1 [Example 203, (Z)-3-{1-[4-(N-(2-morpholinoethyl)-N-methylsulphonyl-amino)-phenylamino]-1-phenyl-methylidene}-5-nitro-2-indolinone] | 255 to 257 °C
26 | CS(=O)(=O)N(CC(=O)O)c1cccc(N/C(=C2\C(=O)Nc3ccccc32)c2ccccc2)c1 [Example 318, (Z)-3-{1-[3-(N-carboxymethyl-N-methylsulphonyl-amino)-phenylamino]-1-phenyl-methylidene}-2-indolinone] | 270 °C (dec.)
27 | CC(=O)NCc1ccc(/C(Nc2cccc(N(CC(=O)N(C)C)S(C)(=O)=O)c2)=C2/C(=O)Nc3ccccc32)cc1 [Example 421, (Z)-3-{1-[3-(N-dimethylaminocarbonylmethyl-N-methylsulphonyl-amino)-phenylamino]-1-(4-acetylaminomethyl-phenyl)-methylidene}-2-indolinone] | 194 °C
28 | CN(C)CC(=O)N(C)c1ccc(N/C(=C2\C(=O)Nc3ccccc32)c2ccccc2)cc1.Cl | 290 to 292 °C
29 | O=C1Nc2ccc([N+](=O)[O-])cc2/C1=C(/Nc1ccc(CN2CCS(=O)(=O)CC2)cc1)c1ccccc1 [Example 231, (Z)-3-{1-[4-((1,1-dioxothiomorpholino)-methyl)-phenylamino]-1-phenyl-methylidene}-5-nitro-2-indolinone] | 328 to 329 °C (dec.)
30 | O=C1Nc2ccc([N+](=O)[O-])cc2/C1=C(/Nc1ccc(CN2CCSCC2)cc1)c1ccccc1 [Example 229, (Z)-3-[1-(4-thiomorpholinomethyl-phenylamino)-1-phenyl-methylidene]-5-nitro-2-indolinone] | 276 to 277 °C
31 | CCC(=O)N(CC(=O)NC)c1ccc(N/C(=C2\C(=O)Nc3ccccc32)c2ccccc2)cc1 [Example 358, (Z)-3-{1-[4-(N-methylaminocarbonylmethyl-N-propionyl-amino)-phenylamino]-1-phenyl-methylidene}-2-indolinone] | 268 °C
32 | CNC(=O)CN(C(C)=O)c1ccc(N/C(=C2\C(=O)Nc3ccccc32)c2ccccc2)cc1 [Example 354, (Z)-3-{1-[4-(N-methylaminocarbonylmethyl-N-acetyl-amino)-phenylamino]-1-phenyl-methylidene}-2-indolinone] | 270 °C (dec.)
33 | Cl.NCC(=O)Nc1ccc(N/C(=C2\C(=O)Nc3ccccc32)c2ccccc2)cc1 | 289 to 290 °C
